Experimental findings from patent US20120115845A1, “THERAPEUTIC AGENTS” (priority 2007, published 2012) are described below.

Experiment [1] concerns the target T1, human GHS receptor (Homo sapiens, UniProt Q92847). The experiment can be described thus: h bind IC50 (binding assay, Table 1). Particulars: human receptor; Table 1.
The target of experiment [2] is T1, human GHS receptor. The experiment can be described thus: Ghrelin IP1 agonist assay (IP1 HTRF). On the set-up: expressed in transfected cells; host or cells: HEK293s. In kind it is cell-based. Particulars: for Emax: 2 h, agonist effect as % maximal effect of GHRP-6 (5 μM), read-out: h IP1 ag %; for EC50: HEK293s cells stably expressing human GHS receptor, 2 hours at 37° C., read-out: h IP1 ag EC50. In a few lines: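 Cells: HEK293s stably expressing human GHS receptor, in stimulation buffer containing 0.02% fatty acid free BSA.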

T1 sequence (Q92847 whole entry): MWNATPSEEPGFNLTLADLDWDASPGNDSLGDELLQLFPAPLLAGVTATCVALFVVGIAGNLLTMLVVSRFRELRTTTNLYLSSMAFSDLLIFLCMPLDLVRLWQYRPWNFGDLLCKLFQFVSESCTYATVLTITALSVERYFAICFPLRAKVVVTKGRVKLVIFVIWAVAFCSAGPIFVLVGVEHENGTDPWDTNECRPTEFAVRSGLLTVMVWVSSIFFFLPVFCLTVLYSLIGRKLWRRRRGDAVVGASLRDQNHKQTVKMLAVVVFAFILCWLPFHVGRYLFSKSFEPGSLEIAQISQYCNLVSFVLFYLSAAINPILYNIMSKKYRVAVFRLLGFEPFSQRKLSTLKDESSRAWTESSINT

Take `O=C(NC(=O)c1ccccc1Cl)Nc1nc2ccc(S(=O)(=O)CCN3CCCCC3)cc2s1` [Example 33, 2-Chloro-N-[[6-[2-(1-piperidyl)ethylsulfonyl]benzothiazol-2-yl]carbamoyl]benzamide]: the IC50 at human GHS receptor [1] stood at 88.5 nM. Besides, at human GHS receptor [2], the Emax was 41.5% and the EC50 came to 24.9 nM.

`CN1CCC(S(=O)(=O)c2ccc3nc(NC(=O)NC(=O)c4cc(-n5cccn5)ccc4Cl)sc3c2)CC1` [Example 100, 2-Chloro-N-(6-(1-methylpiperidin-4-ylsulfonyl)benzothiazol-2-ylcarbamoyl)-5-(1H-pyrazol-1-yl)benzamide] returned a half-inhibitory concentration (IC50) on human GHS receptor [1] of 27.3 nM. In addition, on human GHS receptor [2], the Emax is 0% and the EC50 was no less than 20000 nM.

On human GHS receptor [1], `COc1cc(Cl)c(C(=O)NC(=O)Nc2nc3ccc(S(=O)(=O)CCCN4CCN(C)CC4)cc3s2)cc1-n1cccn1` [Example 242, 2-chloro-4-methoxy-N-(6-(3-(4-methylpiperazin-1-yl)propylsulfonyl)benzo[d]thiazol-2-ylcarbamoyl) 5-(1H-pyrazol-1-yl)benzamide] registered an IC50 of 0.62 nM. Moreover, at human GHS receptor [2], the Emax was found to be 9.32% and the EC50 is no less than 20000 nM.

Compound `C#Cc1ccc(Cl)c(C(=O)NC(=O)Nc2nc3ccc(S(C)(=O)=O)cc3s2)c1` [Example 61, 2-Chloro-5-ethynyl-N-(6-(methylsulfonyl)benzothiazol-2-ylcarbamoyl)benzamide] returned a half-maximal inhibitory concentration (IC50) on human GHS receptor [1] of 161 nM. In addition, at human GHS receptor [2], the Emax is 0.276% and the half-maximal effective concentration (EC50) was greater than 25000 nM.

At human GHS receptor [1], `O=C(NC(=O)c1ccccc1Cl)Nc1nc2ccc(S(=O)(=O)CCC3CCNCC3)cc2s1` [Example 221, 2-Chloro-N-[[6-[2-(4-piperidyl)ethylsulfonyl]benzothiazol-2-yl]carbamoyl]benzamide] displayed an IC50 of 15.4 nM. Moreover, at human GHS receptor [2], the Emax came out at 65% and the concentration giving a half-maximal response (EC50) was 18.7 nM.

`CS(=O)(=O)c1ccc2nc(NC(=O)NC(=O)c3cc(-c4ccccn4)ccc3Cl)sc2c1` [Example 45, 2-Chloro-5-(pyridin-2-yl)-N-(6-(methylsulfonyl)benzothiazol-2-ylcarbamoyl)benzamide] showed an IC50 at human GHS receptor [1] of 21.4 nM. At human GHS receptor [2], the Emax worked out at 0.946% and the concentration for a half-maximal effect (EC50) was no less than 25000 nM.

For the compound `COCCCS(=O)(=O)c1ccc2nc(NC(=O)NC(=O)c3ccccc3Cl)sc2c1` [Example 192, 2-Chloro-N-[[6-(3-methoxypropylsulfonyl)benzothiazol-2-yl]carbamoyl]benzamide], at human GHS receptor [1], the IC50 is 52.4 nM. Also, on human GHS receptor [2], the Emax was 23.8% and the half-maximal effective concentration (EC50) was determined as 51.3 nM.

`COc1cc(Cl)c(C(=O)NC(=O)Nc2nc3ccc(S(=O)(=O)C4CCN(C(=O)OC(C)(C)C)CC4)cc3s2)cc1-n1cccn1` [Example 262, tert-butyl4-(2-(3-(2-chloro-4-methoxy-5-(1H-pyrazol-1-yl)benzoyl)ureido)benzo[d]thiazol-6-ylsulfonyl) piperidine-1-carboxylate] showed a half-inhibitory concentration (IC50) on human GHS receptor [1] of 34.3 nM. On human GHS receptor [2], the Emax worked out at 0% and the 50% effective concentration (EC50) is no less than 20000 nM.

`CS(=O)(=O)Oc1ccc(Cl)c(C(=O)NC(=O)Nc2nc3ccc(S(C)(=O)=O)cc3s2)c1` [Example 58, 4-Chloro-3-(6-(methylsulfonyl)benzothiazol-2-ylcarbamoylcarbamoyl)phenyl methanesulfonate]: on human GHS receptor [1], the concentration for half-maximal inhibition (IC50) was determined as 1310 nM. Besides, at human GHS receptor [2], the Emax amounted to 8.82% and the EC50 amounted to 3010 nM.

`CCN(CC)CCCS(=O)(=O)c1ccc2nc(NC(=O)NC(=O)c3cc(-n4cccc4)ccc3Cl)sc2c1` [Example 71, 2-Chloro-N-[[6-(3-diethylaminopropylsulfonyl)benzothiazol-2-yl]carbamoyl]-5-pyrrol-1-yl-benzamide] registered a half-inhibitory concentration (IC50) at human GHS receptor [1] of 0.4 nM. In addition, on human GHS receptor [2], the Emax worked out at 0.0469% and the EC50 was no less than 25000 nM.

In turn, `CN1CCN(CCCS(=O)(=O)c2ccc3nc(NC(=O)NC(=O)c4cc(C5CC5)ccc4Cl)sc3c2)CC1` [Example 94, 2-Chloro-5-cyclopropyl-N-(6-(3-(4-methylpiperazin-1-yl)propylsulfonyl)benzothiazol-2-ylcarbamoyl)benzamide] displayed an IC50 at human GHS receptor [1] of 0.3 nM. Moreover, at human GHS receptor [2], the Emax came out at 18.1% and the EC50 was 7.24 nM.

For the compound `O=C(NC(=O)c1ccccc1Cl)Nc1nc2ccc(S(=O)(=O)CCCN3CCOCC3)cc2s1` [Example 146, 2-Chloro-N-[[6-(3-morpholin-4-ylpropylsulfonyl)benzothiazol-2-yl]carbamoyl]benzamide], the IC50 on human GHS receptor [1] is 269 nM. Further, on human GHS receptor [2], the Emax was 40.7% and the EC50 is 30 nM.

`CN(C)C1CCN(c2ccc(Cl)c(C(=O)NC(=O)Nc3nc4ccc(S(C)(=O)=O)cc4s3)c2)CC1` [Example 236, 2-chloro-5-(4-(dimethylamino)piperidin-1-yl)-N-(6-(methylsulfonyl)benzo[d]thiazo1-2-ylcarbamoyl) benzamide] returned a half-inhibitory concentration (IC50) on human GHS receptor [1] of 4090 nM. Besides, on human GHS receptor [2], the Emax worked out at 3.72% and the EC50 is no less than 20000 nM.

Compound `CC(=O)N1CCC(Oc2ccc(Cl)c(C(=O)NC(=O)Nc3nc4ccc(S(C)(=O)=O)cc4s3)c2)C1` (stereo not drawn) [Example 227, 5-(1-acetylpyrrolidin-3-yloxy)-2-chloro-N-(6-(methylsulfonyl)benzo[d]thiazol-2-ylcarbamoyl)benzamide] displayed a half-inhibitory concentration (IC50) on human GHS receptor [1] of 3790 nM. At human GHS receptor [2], the Emax is 10.6% and the concentration for a half-maximal effect (EC50) was no less than 20000 nM.

On human GHS receptor [1], `CS(=O)(=O)c1ccc2nc(NC(=O)NC(=O)c3cc(OC4CCCC4)ccc3Cl)sc2c1` [Example 51, 2-Chloro-5-cyclopentyloxy-N-(6-(methylsulfonyl)benzothiazol-2-ylcarbamoyl)benzamide] showed a concentration for half-maximal inhibition (IC50) of 14.2 nM. On human GHS receptor [2], the Emax was 1% and the EC50 turned out to be 16 nM.

As to `O=C(NC(=O)c1ccccc1Cl)Nc1nc2ccc(S(=O)(=O)Cc3cccnc3)cc2s1` [Example 187, 2-Chloro-N-[[6-(pyridin-3-ylmethylsulfonyl)benzothiazol-2-yl]carbamoyl]benzamide], the IC50 on human GHS receptor [1] worked out at 58.1 nM. Also, at human GHS receptor [2], the Emax stood at 16.1% and the EC50 came to 5.95 nM.

Regarding `CS(=O)(=O)c1ccc2nc(NC(=O)NC(=O)c3ccccc3[N+](=O)[O-])sc2c1` [Example 104, N-[(6-Methylsulfonylbenzothiazol-2-yl)carbamoyl]-2-nitro-benzamide], at human GHS receptor [1], the 50% inhibitory concentration (IC50) was found to be 742 nM. Further, at human GHS receptor [2], the Emax turned out to be 15.1% and the 50% effective concentration (EC50) is 772 nM.

On human GHS receptor [1], `CS(=O)(=O)c1ccc2nc(NC(=O)NC(=O)c3cc(N4CC=CC4)ccc3Cl)sc2c1` [Example 50, 2-Chloro-5-(2,5-dihydro-pyrrol-1-yl)-N-(6-(methylsulfonyl)benzothiazol-2-ylcarbamoyl)benzamide] had an IC50 of 1 nM. On human GHS receptor [2], the Emax was found to be 0% and the EC50 is no less than 25000 nM.

Take `CC(C)OCCNCCS(=O)(=O)c1ccc2nc(NC(=O)NC(=O)c3ccccc3Cl)sc2c1` [Example 38, 2-Chloro-N-[[6-[2-(2-propan-2-yloxyethylamino)ethylsulfonyl]benzothiazol-2-yl]carbamoyl]benzamide]: the IC50 at human GHS receptor [1] turned out to be 179 nM. Besides, on human GHS receptor [2], the Emax came out at 40% and the half-maximal effective concentration (EC50) turned out to be 14.7 nM.

`O=C(NC(=O)c1ccccc1Cl)Nc1nc2ccc(S(=O)(=O)CCCn3ccnc3)cc2s1` [Example 193, 2-Chloro-N-[[6-(3-imidazol-1-ylpropylsulfonyl)benzothiazol-2-yl]carbamoyl]benzamide] registered a 50% inhibitory concentration (IC50) at human GHS receptor [1] of 25.9 nM. For the same compound, on human GHS receptor [2], the Emax turned out to be 30.6% and the EC50 was determined as 18.5 nM.

On human GHS receptor [1], `CCc1ccc(Cl)c(C(=O)NC(=O)Nc2nc3ccc(S(=O)(=O)CCCN4CCN(C)CC4)cc3s2)c1` [Example 226, 2-chloro-5-ethyl-N-(6-(3-(4-methylpiperazin-1-yl)propylsulfonyl)-benzo[d]thiazol-2-ylcarbamoyl)benzamide] gave a half-inhibitory concentration (IC50) of 0.05 nM. Moreover, at human GHS receptor [2], the Emax is 22.3% and the EC50 is 2.19 nM.

`Cc1ccn(-c2ccc(Cl)c(C(=O)NC(=O)Nc3nc4ccc(S(=O)(=O)CCCN5CCN(C)CC5)cc4s3)c2)n1` [Example 91, 2-Chloro-5-(3-methyl-1H-pyrazol-1-yl)-N-(6-(3-(4-methylpiperazin-1-yl)propylsulfonyl)benzothiazol-2-ylcarbamoyl)benzamide]: the IC50 at human GHS receptor [1] was determined as 0.5 nM. In addition, on human GHS receptor [2], the Emax was 0.5% and the EC50 worked out at 4820 nM.

With `NC1CC(S(=O)(=O)c2ccc3nc(NC(=O)NC(=O)c4ccccc4Cl)sc3c2)C1` (stereo not drawn) [Example 214, N-[[6-(3-Aminocyclobutyl)sulfonylbenzothiazol-2-yl]carbamoyl]-2-chloro-benzamide], the concentration for half-maximal inhibition (IC50) on human GHS receptor [1] turned out to be 32.6 nM. Further, at human GHS receptor [2], the Emax is 52.1% and the concentration for a half-maximal effect (EC50) was 12.4 nM.

Regarding `O=C(NC(=O)c1ccccc1Cl)Nc1nc2ccc(S(=O)(=O)CCCCl)cc2s1` [Example 148, 2-Chloro-N-[[6-(3-chloropropylsulfonyl)benzothiazol-2-yl]carbamoyl]benzamide], the IC50 at human GHS receptor [1] is 830 nM. In addition, at human GHS receptor [2], the Emax stood at 17.7% and the concentration giving a half-maximal response (EC50) stood at 52.9 nM.

On human GHS receptor [1], `CN1CCN(CCCS(=O)(=O)c2ccc3nc(NC(=O)NC(=O)c4cc(-c5ccccn5)ccc4Cl)sc3c2)CC1` [Example 86, 2-Chloro-N-(6-(3-(4-methylpiperazin-1-yl)propylsulfonyl)benzothiazol-2-ylcarbamoyl)-5-(pyridin-2-yl)benzamide] showed a half-maximal inhibitory concentration (IC50) of 0.7 nM. Also, at human GHS receptor [2], the Emax amounted to 0.64% and the EC50 was no less than 25000 nM.

On human GHS receptor [1], `CC1CN(CCCS(=O)(=O)c2ccc3nc(NC(=O)NC(=O)c4ccccc4Cl)sc3c2)CCN1` (stereo not drawn) [Example 209, 2-Chloro-N-[[6-[3-(3-methylpiperazin-1-yl)propylsulfonyl]benzothiazol-2-yl]carbamoyl]benzamide] yielded an IC50 of 12.4 nM. Moreover, at human GHS receptor [2], the Emax is 42.2% and the 50% effective concentration (EC50) is 15.4 nM.
